Key:
[1] = tested on: Gloeophyllum trabeum (ATCC 11539); experiment: AWPA E10-01 laboratory soil-block culture decay test of treated southern pine blocks; format: cell-based; settings: for Mean percent weight loss (s.d. in parentheses), G. trabeum: unleached southern pine blocks, 12 weeks, n = 5
Protocol: (§1) The decay resistance of southern pine treated with six experimental wood preservative formulations and exposed to two brown rot fungal species were tested using the AWPA E10-01 “Standard Method of Testing Wood Preservatives by Laboratory Soil-Block Cultures.” For this, conditioned blocks of wood are treated with suitable solutions of preservative. After a conditioning period, the wood blocks are exposed to a recognized destructive species of wood-destroying fungi. The minimum amount of preservative that protects the wood blocks against decay by a given fungus is defined as the threshold retention for that organism. Failure to protect is evidenced by loss of mass from the treated wood blocks, as indicated by a loss of weight.
(§2) Preparation of wood. Southern pine sapwood (Pinus spp.) with 6-10 rings/inch and clear of knots or other obvious defects was used. The wood was milled into test blocks of 19 mm×19 mm×19 mm. The test cubes were divided into density groups of ±5%, with 5 blocks per treatment or control. One feeder strip is needed for each block in a culture bottle. The sapwood selected for feeder strips should be capable of furnishing a satisfactory growth of the test fungus. Southern pine sapwood feeder strips were cut to approximately 3 by 28 by 34 mm with the grain of the wood parallel to either of the long dimensions and with the edge grain (radial surface) exposed to the flat face, insofar as possible.
(§3) The test blocks were pressure treated with the test preservatives, solvent alone, or two control wood preservatives, ACQ-Type D and propiconazole […] according to procedures detailed in AWPA Standard E7-01. Several of the compounds detailed in Table 1 are commercially available from Novus International, Saint Louis, Mo. (i.e., the composition abbreviated Biox AUSD is a blend of organic acid, inorganic acid and HMTBA and is sold under the trade name ACTIVATE® US WD; the compound abbreviated Biox C is HMBTA-Cu and is sold under the trade name MINTREX® Cu; the compound Biox C/Biox SE is a blend of ethoxyquin and HMTBA-Cu; the compound abbreviated Biox SE is ethoxyquin emulsion; the compound abbreviated Biox T is an antioxidant blend sold under the trade name TOXGUARD®, and the compound abbreviated Biox Z is HMTBA-Zn is sold under the trade name MINTREX® Zn).
(§4) Briefly, a full cell pressure process, simulating commercial practice as far as possible with laboratory plant equipment, using an initial vacuum, suitable temperature, and an appropriate pressure period was used. The amount of preservative absorbed by the block, i.e., the retention, was calculated for each preservative. After the test blocks were treated and weighed to obtain absorption, they were exposed to open laboratory conditions until the solvent evaporated and the moisture content was relatively stable. Then they were placed in a conditioning room for 21 days. The blocks were tested in the unleached condition.
(§5) Preparation of soil culture bottles. A soil substrate with a water holding capacity between 20% and 40% and a pH between 5.0 and 8.0 was used. The soil substrate, sifted and lightly compacted by tapping, was placed in 8-oz cylindrical culture bottles fitted with screw caps without liners. The bottles were about half-full. This amount of soil, about 118 ml for an 8-oz. culture bottle, weighed not less than 90 g when oven-dried. […] The soil was leveled and one feeder strip per block was placed in each bottle. The soil-filled bottles were autoclaved for 30 min (one time), with the caps loosened. Lids on jars with a breather hole were covered with a strip of cloth first-aid tape.
(§6) Preparation of test cultures. […] Sections (e.g., 10 mm squares) were cut from near the leading edge of mycelium in petri dish cultures and placed in contact with an edge of a feeder strip on the soil of the culture bottles.

[2] = tested on: Postia placenta (Madison 698); experiment: as above; format: cell-based; settings: for Mean percent weight loss (s.d. in parentheses), P. placenta: unleached southern pine blocks, 12 weeks, n = 5
Protocol: as §1, §2, §3, §4, §5, §6

[3] = over all Biox C retentions, ethanolamine retention 36 kg/m^3, no observable dose response

Which results are given for `CSCCC(O)C(=O)[O-].CSCCC(O)C(=O)[O-].[Cu+2]` (centres unmarked) [Biox C, copper bis(2-hydroxy-4-methylthio)butanoic acid]?
weight losses, G. trabeum [1, 3]: approximately 6.5%; Mean percent weight loss (s.d. in parentheses), G. trabeum ([1]; retention 0.05 kg/m^3): 5.5 (0.7) %; Mean percent weight loss (s.d. in parentheses), G. trabeum ([1]; retention 0.10 kg/m^3): 6.9 (1.8) %; Mean percent weight loss (s.d. in parentheses), G. trabeum ([1]; retention 0.50 kg/m^3): 6.1 (0.7) %; Mean percent weight loss (s.d. in parentheses), G. trabeum ([1]; retention 2.00 kg/m^3): 10.2 (5.3) %; weight losses, P. placenta [2, 3]: ~5.0%; Mean percent weight loss (s.d. in parentheses), P. placenta ([2]; retention 0.05 kg/m^3): 4.5 (0.8) %; Mean percent weight loss (s.d. in parentheses), P. placenta ([2]; retention 0.10 kg/m^3): 5.0 (1.0) %; Mean percent weight loss (s.d. in parentheses), P. placenta ([2]; retention 0.50 kg/m^3): 6.1 (0.4) %; Mean percent weight loss (s.d. in parentheses), P. placenta ([2]; retention 2.00 kg/m^3): 5.1 (0.7) %

For `CSCCC(O)C(=O)[O-].CSCCC(O)C(=O)[O-].[Zn+2]` (centres unmarked) [Biox Z], which “Mean percent weight loss (s.d. in parentheses), G. trabeum” value (from here on “Mean percent weight loss … G. trabeum”) ([1]; retention 0.05 kg/m^3) is on record?
Its value is 38.8 (3.3) %.

What about the “Mean percent weight loss … G. trabeum” value ([1]; retention 0.10 kg/m^3) of the same compound?
Its value is 26.4 (8.5) %.

And the “Mean percent weight loss … G. trabeum” value ([1]; retention 0.50 kg/m^3)?
The value was 28.9 (15.2) %.

What about the “Mean percent weight loss … G. trabeum” value ([1]; retention 2.00 kg/m^3) of the same compound?
Its value is 27.8 (6.1) %.

And the “Mean percent weight loss (s.d. in parentheses), P. placenta” value (from here on “Mean percent weight loss … P. placenta”) ([2]; retention 0.05 kg/m^3)?
Its value is 50.4 (2.9) %.

What about the “Mean percent weight loss … P. placenta” value ([2]; retention 0.10 kg/m^3) of the same compound?
The value was 47.7 (5.1) %.

And the “Mean percent weight loss … P. placenta” value ([2]; retention 0.50 kg/m^3)?
Its value is 42.6 (23.8) %.

And the “Mean percent weight loss … P. placenta” value ([2]; retention 2.00 kg/m^3)?
Its value is 26.1 (23.2) %.

With `CC(C)(C)C(O)(CCc1ccc(Cl)cc1)Cn1cncn1` (centres unmarked) [Tebuconazole, reference compound] as the compound, how does the “Mean percent weight loss … G. trabeum” value ([1]; retention 0.010 kg/m^3) read?
The value was 15.5 (3.7) %.

What about the “Mean percent weight loss … G. trabeum” value ([1]; retention 0.025 kg/m^3) of the same compound?
The value was 11.8 (8.3) %.

What about the “Mean percent weight loss … G. trabeum” value ([1]; retention 0.05 kg/m^3) of the same compound?
Its value is 3.2 (1.3) %.

What about the “Mean percent weight loss … G. trabeum” value ([1]; retention 0.10 kg/m^3) of the same compound?
The value was 1.0 (0.4) %.

What about the “Mean percent weight loss … P. placenta” value ([2]; retention 0.010 kg/m^3) of the same compound?
Its value is 24.9 (21.8) %.

And the “Mean percent weight loss … P. placenta” value ([2]; retention 0.025 kg/m^3)?
Its value is 22.4 (17.4) %.

And the “Mean percent weight loss … P. placenta” value ([2]; retention 0.05 kg/m^3)?
The value was 15.5 (13.6) %.

What about the “Mean percent weight loss … P. placenta” value ([2]; retention 0.10 kg/m^3) of the same compound?
Its value is 2.8 (3.1) %.
